# According to patent publication US20100029734A1, “METHODS FOR BREAST CANCER SCREENING AND TREATMENT” (Ore Pharmaceuticals Inc., priority 2008, published 2010):
# “Also recorded” adds a separate entry of the source.
# Tests used:
# [1] = test system: T47D (ER+, PR+); conditions: T47D cells; cited from earlier work
# [2] = test system: T47D xenografts; experiment: Growth of ER+ breast cancer cell line xenografts in NODscid mice; type: in vivo; conditions: 3-5 weeks, female NODscid mice
# Method: Female NODscid mice of age 5-6 weeks received a subcutaneous estrogen pellet implant (1.7 mg). Twenty four hours after estrogen pellet implantation, the mice received tumor implantation by subcutaneous injection of T47D cells to the flank (approximately 2.5×10^6 cells/mouse). The mice were ear-notched for identification and housed 4 animals per cage. […] Tumors were measured 3 times weekly using digital calipers. Body weight was measured twice weekly. Clinical observations were conducted weekly.
# [3] = test system: T47D (ER+ cell line); experiment: RT-CES cell proliferation assay, T47D; type: cell-based, human
# Method: (§1) Unless otherwise indicated, cell proliferation assays described in Examples 2-5 were performed using a Real-Time Cell Electronic Sensing (RT-CES™ 96X) instrument from ACEA Bioscience (San Diego, Calif.). This instrument utilizes an electronic readout (impedance) to non-invasively quantify adherent cell proliferation and viability in real time.
# (§2) Cells were seeded in 96-well microtiter plates containing microelectronic sensor arrays (96E plates; ACEA). Cells were maintained in RPMI 1640 (Invitrogen, Carlsbad, Calif.) supplemented with 10% fetal bovine serum (FBS) (Hyclone, Logan, Utah) and were cultured at 37° C. in a humidified atmosphere containing 5% CO2. For proliferation assays, cells were seeded (20,000 cells/well), allowed to attach and grown overnight in standard growth medium. Cells were then serum-starved for 8 hours prior to the proliferation assay in presence or absence of test compound(s). The proliferation response was continuously monitored by measuring the impedance change in each well for the indicated number of hours. Data are expressed as cell index (CI) change relative to time in culture, reflecting measured changes in electrical impedance. Each value shown is an average of 6 wells.
# (§3) T47D (American Type Culture Collection, Manassas, Va. (ATCC) cat. HTB-133) is an ER+ cell line derived from human mammary gland ductal carcinoma Other ER+ cell lines used in studies reported herein include ZR-75 and HCC70. HCC1143 (ATCC cat. CRL-2321) is an ER− cell line also derived from human mammary gland ductal carcinoma.
# (§4) Following the 8 hour starvation phase, either Ang II (Sigma-Aldrich), 500 nM, or vehicle control was added to the cell culture. […] Ang II also stimulated proliferation of ER+ cell lines HCC70, by approximately 30%, and ZR-75, by approximately 35%, relative to vehicle control (data not shown).
# [4] = test system: HCC1143 (ER− cell line); experiment: RT-CES cell proliferation assay, HCC1143; type: cell-based, human
# Method: as §1, §2, §3, §4
# [5] = test system: cells cultured from invasive ductal carcinomas; conditions: cells positive for ER and PR, cited from earlier work
# [6] = test system: invasive breast cancer; conditions: administered for 5 years; women having risk factors; cited from earlier work
# [7] = test system: HCC70; experiment: RT-CES cell proliferation assay, HCC70; type: cell-based, human
# Method: as §1
# as §2, with “wells. […]” for “wells.”
# [8] = test system: ZR-75; experiment: RT-CES cell proliferation assay, ZR-75; type: cell-based, human
# Method: as §1
# as §2, with “wells. […]” for “wells.”
# [9] = test system: HCC1395; experiment: RT-CES cell proliferation assay, HCC1395; type: cell-based, human
# Method: as §1
# as §2, with “wells. […]” for “wells.”
# [10] = test system: HCC1954; experiment: RT-CES cell proliferation assay, HCC1954; type: cell-based, human
# Method: as §1
# as §2, with “wells. […]” for “wells.”
# [11] = test system: HCC1937; experiment: RT-CES cell proliferation assay, HCC1937; type: cell-based, human
# Method: as §1
# as §2, with “wells. […]” for “wells.”
# [12] = test system: HCC38; experiment: RT-CES cell proliferation assay, HCC38; type: cell-based, human
# Method: as §1
# as §2, with “wells. […]” for “wells.”
# [13] = test system: T47D; conditions: cited from earlier work
# [14] = test system: MCF-7; conditions: cited from earlier work
molecule,measurement,setting,value
"C[C@H](CS)C(=O)N1CCC[C@H]1C(=O)O [Captopril, (2S)-1-((2S)-2-methyl-3-sulfanylpropanoyl)pyrrolidine-2-carboxylic acid]",ER protein concentration,[1],reduced ER
same,PR protein concentration,[1],increased PR
same,[3H]thymidine incorporation (an index of cell proliferation),[1],inhibited [3H]thymidine incorporation
CCOc1nc2cccc(C(=O)OC(C)OC(=O)OC3CCCCC3)c2n1Cc1ccc(-c2ccccc2-c2nnn[nH]2)cc1 (stereo not shown) [candesartan cilexetil],growth in tumor volume,"[2]; candesartan cilexetil 10, 30, 100 mg/kg p.o. once daily",reduced in a dose-dependent fashion
CCCCC1=NC2(CCCC2)C(=O)N1Cc1ccc(-c2ccccc2-c2nnn[nH]2)cc1 [irbesartan],inhibition of Ang II-induced growth / cell proliferation,"[3]; T47D, AT1 receptor antagonist 5 μM + Ang II 500 nM",significantly inhibited Ang II-induced growth; also recorded: reversed the Ang II effect
same,effect on cell proliferation,"[4]; HCC1143, AT1 receptor antagonist 5 μM + Ang II 500 nM, data not shown",No effects
same,growth in tumor volume,"[2]; irbesartan 30, 100, 300 mg/kg p.o. once daily",lowest dose tested (30 mg/kg) appeared to give the greatest effect
"NCCCCC(NC(CCc1ccccc1)C(=O)O)C(=O)N1CCCC1C(=O)O.O.O (stereo not shown) [lisinopril, 1-(6-amino-2-(1-carboxy-3-phenyl-propyl)aminohexanoyl)pyrrolidine-2-carboxylic acid dihydrate]",ER protein concentration,[1],No such effects
same,PR protein concentration,[1],No such effects
same,[3H]thymidine incorporation (an index of cell proliferation),[1],No such effects
CCCCc1nc(Cl)c(CO)n1Cc1ccc(-c2ccccc2-c2nn[nH]n2)cc1 [losartan],effect on Ang II-stimulated proliferation,[5],blocked
CC/C(=C(\c1ccccc1)c1ccc(OCCN(C)C)cc1)c1ccccc1 [tamoxifen],effect on Ang II-induced cell proliferation,"[3]; T47D, tamoxifen 7.5 μM + Ang II 500 nM",reduced cell proliferation to a level lower than that of vehicle control
same,growth in tumor volume,"[2]; tamoxifen 0.1, 0.3, 1.0 mg/kg p.o. once daily",reduced in a dose-dependent fashion
same,reduction of incidence of invasive breast cancer,[6],~50%
CCCc1nc2c(C)cc(-c3nc4ccccc4n3C)cc2n1Cc1ccc(-c2ccccc2C(=O)O)cc1 [telmisartan],inhibition of Ang II-induced growth,"[3]; T47D, telmisartan 1.25 μM or 5 μM + Ang II 500 nM",significantly inhibited Ang II-induced growth
same,effect on cell proliferation,"[4]; HCC1143, telmisartan 1.25 μM or 5 μM + Ang II 500 nM",No effects
"Ang II: peptide angiotensin II, a major regulator of blood pressure and cardiovascular homeostasis; from Sigma-Aldrich (DRVYIHPF; Angiotensin-2; UniProt P01019 25-32, looked up)",Ang II proliferation response,[3]; T47D,positive
same,effect of Ang II on growth / cell proliferation,"[3]; T47D (ER+), Ang II 500 nM vs vehicle control, after 8 h serum starvation",significantly stimulated growth; also recorded: substantial increase in cell proliferation
same,Ang II proliferation response,[4]; HCC1143,negative
same,effect of Ang II on growth / cell proliferation,"[4]; HCC1143 (ER−), Ang II 500 nM vs vehicle control",No effects
same,Ang II proliferation response,[7]; HCC70,positive
same,stimulation of proliferation relative to vehicle control,"[7]; HCC70 (ER+), Ang II, data not shown",approximately 30%
same,Ang II proliferation response,[8]; ZR-75,positive
same,stimulation of proliferation relative to vehicle control,"[8]; ZR-75 (ER+), Ang II, data not shown",approximately 35%
same,Ang II proliferation response,[9],negative
same,Ang II proliferation response,[10],negative
same,Ang II proliferation response,[11],negative
same,Ang II proliferation response,[12],negative
same,proliferation of cultured cells,[5]; Ang II,stimulated in a dose-dependent manner
same,stimulation of cell growth by Ang II,[13],significant stimulation of cell growth
same,proliferative effect,[14],dose-dependent proliferative effect
